Assay results: patent publication US12377176B2, “Cancer diagnostic imaging agents” (Technische Universität München, priority 2019, dated 2025)
Values joined by “and” are separate entries in the source; they are usually repeats but may differ in a detail not shown here. Identical values can stand only once. Marks after values point to notes of the source that are not given here.

Experiment: In vivo distribution of rhPSMA-7 isomers after rhPSMA7-rac: radio-HPLC and radio-TLC of blood, organ and urine samples
Set-up: species or system mice
Protocol: In order to quantify the relative uptake of each isomer (rhPSMA-7.1-7.4), a tumor-bearing male CB-17-SCID mouse was injected with the racemic mixture of rhPSMA-7 (180-280 MBq, SA=247-349 GBq/μmol, produced at the Klinikum rechts der Isar in a fully automated procedure). The animal was left under anesthesia for 30 min and sacrificed. Urine, blood, liver, kidneys and tumor were collected and processed to the hereafter described procedures. The urine sample was centrifuged for 5 min at 9000 rpm to yield a clear solution and directly subjected to radio-HPLC analysis. Blood was diluted to 1 mL with H2O and centrifuged twice at 13000 g for 5 min. The supernatant was collected and loaded on a Strata X cartridge (33 μm Polymeric Reversed Phase 500 mg, pre-conditioned with 5 mL MeOH, followed by 5 mL H2O). After washing with 5 mL H2O, the cartridge was eluted with a 6:4 mixture (v/v) of MeCN in H2O, supplemented with 1% TFA. The eluate was diluted with water and analysed by radio-HPLC. Tumour, kidneys and liver were homogenised using either a Potter-Elvehjem tissue grinder (Kontes Glass Co, Vineland, USA) or a MM-400 ball mill (Retsch GmbH, Haan, Germany).
Tumour and kidneys were separately homogenised in the tissue homogeniser with 1 mL of extraction buffer (850 μL 1 M HEPES pH7.4, 100 μL20 mM PMPA and 100 μL 1M NaCl) for 30 min. The resulting homogenate was collected and centrifuged at 13000 g for 5 min. Subsequently the supernatant was collected, centrifuged again (13000 g, 5 min) and loaded on a Strata X cartridge (33 μm Polymeric Reversed Phase 500 mg, pre-conditioned with 5 mL MeOH, followed by 5 mL H2O). After washing with 5 mL H2O, the cartridge was eluted with a 6:4 mixture (v/v) of MeCN in H2O, supplemented with 1% TFA. The eluate of each organ was diluted with water and analysed by radio-HPLC.
The organs (tumour, kidney, liver) were separately homogenised in a 2 mL tube together with 3 grinding balls (3 mm diameter) and 1 mL of extraction buffer (850 μL 1 M HEPES pH7.4, 100 μL 20 mM PMPA and 100 μL 1M NaCl) for 10 min at 30 Hz. The homogenate was centrifuged at 13000 g for 5 min and the supernatant was collected. Subsequently, the pellet was suspended in 1 mL of extraction buffer and homogenized again with the ball mill for 10 min at 30 Hz. After centrifugation (13000 g, 5 min), both supernatants were combined and loaded on a Strata X cartridge (33 μm Polymeric Reversed Phase 500 mg, pre-conditioned with 5 mL MeOH, followed by 5 mL H2O). After washing with 5 mL H2O, the cartridge was eluted with a 6:4 mixture (v/v) of MeCN in H2O, supplemented with 1% TFA. The eluate of each organ was diluted with water and analysed by radio-HPLC. […] Finally the ratios of the individual isomers were determined from the HPLC profiles of the extracted samples and compared to the ratios of the isomers from the quality control of the racemic mixture of rhPSMA-7. The decay corrected extraction- and cartridge loading-efficiency, as well as the overall extracted activity of the examined samples are given in table 2. The cartridge elution-efficiency was >99% for all experiments.
Radio-TLC Analysis was carried out a) on urine samples by directly subjecting a small volume onto a TLC strip, b) by analysis of a small volume of the non-immobilized activity during the SPE process (the ‘breakthrough fraction’), and c) by analysis of a small volume of the cartridge eluates.

[1] = Phosphoimager, Blood, 30 min p.i.
[2] = Phosphoimager, Kidney, 30 min p.i.
[3] = Phosphoimager, Tumor, 30 min p.i.
[4] = Phosphoimager, Urine, 30 min p.i., listed as [^18F]rhPSMA7-rac
[5] = TLC Scanner, Kidney, tumor bearing mice 30 min p.i., listed as [^18F]rhPSMA7-rac

## [^19F][^natGa]D/L-Dap-R/S-DOTAGA-rhPSMA7 [rhPSMA7-rac]
[1]
  Intact tracer: 96.80^ %
  ^18F-Fluoride: 3.20^ %
[2]
  Intact tracer: 96.48^ %
  ^18F-Fluoride: 3.52^ %
Phosphoimager, Liver, 30 min p.i., listed as [^18F]rhPSMA7-rac
  Intact tracer: 93.92^# % and 74.15^# %
[3]
  Intact tracer: 96.47^ %
  ^18F-Fluoride: 4.15^ %
[4]
  Intact tracer: 98.55^ % and 95.85^ %
  ^18F-Fluoride: 1.55^ % and 4.15^ %
[5]
  Intact tracer: 94.04% and 94.58%
  ^18F-Fluoride: 5.96% and 5.42%
TLC Scanner, Urine, tumor bearing mice 30 min p.i., listed as [^18F]rhPSMA7-rac
  Intact tracer: 82.51% and 96.2%
